Assay results taken from PMC5443783, “Prostaglandin E2 glyceryl ester is an endogenous agonist of the nucleotide receptor P2Y6” (Scientific Reports, 2017).
Values joined by “and” are separate entries in the source; they are usually repeats but may differ in a detail not shown here. Identical values can stand only once. “Also recorded” adds a separate entry of the source.

What was measured:
RAW264.7 cells = experiment: Intracellular Ca2+ measurement in RAW264.7 cells; format: cell-based, mouse
Protocol: (§1) For fluorometric measurements of intracellular Ca^2+ levels with the FlexStationII instrument (Molecular Devices), RAW264.7 and H1819 cells were seeded into 96-well plates (3.0 × 10^4 cells/well) 24 h prior to assay. Ca^2+ measurements with transiently transfected HEK293 cells were performed 48 h after transfection. Cells were loaded with 200 µl Calcium 5 reagent (Explorer Kit, Molecular Devices, USA) for 60 min at 37 °C, and the assay was performed as described. Agonists and inhibitors were solved in DMSO (100x) and diluted […] in 96-well compound plates containing HBSS. 50 µl of compound solution were added to the assay plate resulting in final concentration of 1% DMSO. Fold-response was calculated by RFUmax − RFUmin (ligand)/RFUmax − RFUmin (vehicle). EC50 values were calculated by using GraphPad Prism6 software (GraphPad, USA).

HEK293 cells = experiment: Intracellular Ca2+ measurement in non-transfected HEK293 cells; format: cell-based, human; settings: for effect on intracellular Ca2+: non-transfected HEK293 cells
Protocol: as §1

P2Y6 Y75A = target: T1, P2Y6 Y75A (Homo sapiens, UniProt Q15077, Y75A); experiment: IP1 accumulation assay, mutant P2Y6 Y75A; format: cell-based; settings: for IP1 formation at mutant receptor: Fig. 6d
T1 construct: expressed in transfected cells; host or cells: HEK293
T1 sequence (Q15077 whole entry Y75A): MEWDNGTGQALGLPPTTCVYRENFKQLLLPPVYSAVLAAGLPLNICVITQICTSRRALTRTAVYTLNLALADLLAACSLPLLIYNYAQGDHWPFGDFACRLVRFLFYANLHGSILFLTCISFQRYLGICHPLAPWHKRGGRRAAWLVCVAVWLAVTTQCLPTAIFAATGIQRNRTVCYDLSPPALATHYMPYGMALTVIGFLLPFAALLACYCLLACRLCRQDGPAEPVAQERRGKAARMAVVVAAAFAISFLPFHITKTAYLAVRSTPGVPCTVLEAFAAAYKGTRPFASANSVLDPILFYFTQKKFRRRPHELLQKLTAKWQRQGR
Excerpt: cDNA from H1819 cells was used to amplify and clone the P2RY6 and CNR2 coding sequences. They were double-tagged with an N-terminal HA epitope and a C-terminal FLAG epitope and, for transient transfection, introduced into the mammalian expression vector pcDps[56]. All mutant constructs were generated by a PCR-based site-directed mutagenesis and fragment replacement strategy. For stable transfection, P2RY6 was sub-cloned into the pIRES-eGFP vector (CLONTECH Laboratories, USA). All constructs were verified by sequencing.
(§2) To measure intracellular IP3 the HitHunter® Inositol (1,4,5) Triphosphate Assay (DiscoveRx, USA) was used according to manufacturer′s protocol. HEK293 cells stably transfected with hP2RY6 were seeded in a 384-well Black microtiter plate (15,000 cells/well) (Greiner Bio One, Germany) and incubated with indicated concentrations of UDP and PGE2-G for 20 seconds. Reaction was stopped by adding 5 µl 0.2 N perchloric acid and measurement of IP3 was performed with the Fusion AlphaScreen multilabel reader (PerkinElmer Life Sciences) according to manufacturer′s protocol. To measure IP1, HEK293 cells expressing wildtype and mutant P2Y6 were seeded into 384-well plates (5,000 cells/well) 24 h prior assay. After aspiration of the medium, cells were incubated with indicated concentrations of agonists/antagonist for 1 h. IP1 measurements using the IP-one HTFR® assay kit (Cisbio assays, USA) were performed according to manufacturer′s protocol. The assays were performed with a final concentration of 1% DMSO.

P2Y6 [1] = target: T2, P2Y6 (Homo sapiens, UniProt Q15077); experiment: Intracellular Ca2+ measurement in HEK293 cells transfected with P2RY6; format: cell-based; design: expressed in transfected cells; host or cells: HEK293; settings: for effect on cytosolic Ca2+ levels: HEK293 transiently transfected with P2RY6, concentration-dependent
T2 sequence (Q15077 whole entry): as the sequence (Q15077 whole entry Y75A) above, with A75Y counted along it
Protocol: RAW264.7 cells were grown in DMEM supplemented with 10% FBS, A7r5 (rat […]) cells in DMEM with 10% FBS, and A431 (human squamous carcinoma) cells in RPMI supplemented with 10% FBS. All cell lines were grown at 37 °C in a humidified 5% CO2 incubator. For functional assays, receptor constructs were heterologously expressed in human embryonic kidney (HEK293) cells upon transient or stable transfection. Cells were grown in DMEM/F12 supplemented with 10% FBS, 100 units/ml penicillin, and 100 µg/ml streptomycin. For the cAMP-inhibition assay, ERK1/2 phosphorylation assay, and Ca^2+ mobilization assay, cells were split into 96-well plates (2.0 × 10^4 cells/well) and transfected with 250 ng vector construct using MACSfectin™ (Miltenyi Biotec, Germany) according to manufacturer’s protocol. Empty vector (mock) served as the negative control. For siRNA experiments, cells were seeded in 6-well plates (4.0 × 10^5 and 6.0 × 10^5 cells/well for RAW264.7 and H1819, respectively). RAW264.7 and H1819 cells were transfected with 150 pMol of mP2RY6 siRNA and hP2RY6 siRNA (Santa Cruz Biotechnology, USA), respectively, using Viromer® Blue (Lipocalyx, Germany). As a negative control, control siRNA-A (Santa Cruz Biotechnology, USA) was used. FITC-labelled siRNA served as a transfection control.
To generate a cell line stably expressing P2Y6, HEK293 cells were seeded in 6-well plates (7.5 × 10^5 cells/well) and transfected with 3 µg vector using MACSfectin™ as transfection regent according to the manufacturer’s protocol. The pIRES-eGFP vector served as negative control. Stably transfected HEK293 cells were cultured in the presence of geneticin (500 µg/ml) for selection.
as §1

P2Y6 [2] = target: T2, P2Y6; experiment: ERK1/2 phosphorylation (AlphaScreen SureFire) in P2RY6-transfected HEK293 cells; format: cell-based; design: expressed in transfected cells; host or cells: HEK293; settings: P2RY6-transfected HEK293 cells, Fig. 3b
Protocol: Cells were transferred to serum-free medium 2 h prior to assay. Ligands and controls (10 µl of 10× concentrates) were added to 90 µl medium and incubated for 5 min at 37 °C. The final concentration of DMSO was 0.2%. The reaction was stopped by aspiration of the medium and addition of 50 µl lysis buffer (PerkinElmer Life Sciences). To measure ERK1/2 phosphorylation, the AlphaScreen® SureFire ERK 1/2 assay kit (PerkinElmer Life Sciences) was used with the high sensitivity protocol. Phosphorylated ERK1/2 was measured in 384-well white OptiPlate microplates (PerkinElmer Life Sciences) with the Fusion AlphaScreen multilabel reader (PerkinElmer Life Sciences).

P2Y6 [3] = target: T2, P2Y6; experiment: IP1 accumulation assay in HEK293 cells transfected with wildtype P2RY6; format: cell-based; design: expressed in transfected cells; host or cells: HEK293
Protocol: as §2

P2Y6 [4] = target: T2, P2Y6; experiment: Agonist-induced receptor internalization, cell surface ELISA; format: cell-based; design: expressed in transfected cells; host or cells: HEK293; settings: HEK293 transiently transfected with hP2RY6, time-dependent, Fig. 5e
Protocol: To estimate cell surface expression of heterologously expressed receptors carrying an N-terminal HA tag, an indirect cellular ELISA was used[57]. To determine the endogenous cell surface expression of P2Y6, the same ELISA procedure was performed with minor modifications. Briefly, after 4% paraformaldehyde fixation and blocking with 10% FBS, cells were incubated with the primary anti-P2Y6 antibody (sc-15215; Santa Cruz Biotechnology, USA) in 1:1,000 dilution for 1 h. After washing with PBS, cells were incubated with peroxidase-conjugated secondary antibody anti-goat IgG (sc-2020, Santa Cruz Biotechnology, USA) in 1:5,000 dilutions.

[5] = HEK293 transiently transfected with P2RY6, Fig. 2b, read-out: EC50, intracellular Ca2+

EC50 (RAW264.7 cells; Fig. 1d, read-out: EC50, intracellular Ca2+ release) [nM] | EC50 (P2Y6 Y75A; Fig. 6e) [nM] | EC50 (P2Y6 [1]; HEK293 stably transfected with P2RY6, Fig. 5, read-out: EC50, Ca2+ mobilization assay) [nM] | EC50 (P2Y6 [3]; HEK293 stably transfected with P2RY6, Fig. 5) [nM] | EC50 (P2Y6 [3]; agonist alone, HEK293 transfected with P2RY6, Fig. 6a) [nM] | Molecule | Maximum RFU for PGE2-G (RAW264.7 cells; control (1% DMSO) 1,560 ± 479) | Maximum RFU for PGE2-G (HEK293 cells; HEK293 cells, control (1% DMSO) 2,106 ± 1,193) | effect on intracellular Ca2+ (HEK293 cells) | IP1 formation at mutant receptor (P2Y6 Y75A) | ratio of EC50 values UDP / PGE2-G (P2Y6 [1]; Ca2+ measurements in transfected HEK cells, Fig. 2b) | EC50 (P2Y6 [1]; [5]) | effect on cytosolic Ca2+ levels (P2Y6 [1]) | ERK1/2 phosphorylation (P2Y6 [2]) | ratio of EC50 values UDP / PGE2-G (P2Y6 [3]; IP1 accumulation, Fig. 6a) | agonist-induced internalization of P2Y6 (cell surface expression) (P2Y6 [4])
– | – | – | – | – | Prostaglandin E2 glyceryl ester [PGE2-G] | 3,649 ± 678 RFU | 2,193 ± 252 RFU | no effect | loss of PGE2-G-induced IP1 formation | ~ 65,000 | ~0.001 nM and 0.0012 nM | increased the cytosolic Ca^2+ levels | led to ERK1/2 phosphorylation; also recorded: induce ERK1/2 phosphorylation | ~ 63,000 | cell surface expression levels of P2Y6 were reduced; also recorded: induced a time-dependent internalization
38.4 ± 1.9 | 15.4 ± 0.9 | 57.1 ± 2.5 | 77.3 ± 3.4 | 18.9 ± 2.3 | O=c1ccn([C@@H]2O[C@H](COP(=O)(O)OP(=O)(O)O)[C@@H](O)[C@H]2O)c(=O)[nH]1 [UDP] | – | – | no effect | efficacy remained unchanged | – | 78.3 ± 6.7 nM | increased the cytosolic Ca^2+ levels | led to ERK1/2 phosphorylation; also recorded: induce ERK1/2 phosphorylation | – | cell surface expression levels of P2Y6 were reduced; also recorded: induced a time-dependent internalization
